{"source": "patent US11064704B2", "about": "“Natural product formulations with improved residual insect repellent/deterrent activity” (University of Mississippi, priority 2016, dated 2021)", "key": {"[1]": {"tested_on": "mosquitoes", "test": "in vivo direct skin application bioassay", "description": "Direct skin application bioassays were conducted by using a powder-free latex glove (Diamond Grip, Microflex Corporation, Reno, Nev.). An opening of 3×4 cm was cut through the glove to fit on dorsal surface of the hand (FIG. 1). After wearing the glove, a wristband was used to avoid the biting on the hand near the border of the glove. Approximately, 500 (±5%), consisting primarily of females were transferred to a test cage (45×45×45 cm) using an aspirator. A series of dosages were tested to determine MED for repellency as well as residual activity against mosquitoes. A single test consisted of covering the hand of a volunteer with a powder-free latex glove and treating 12 cm^2 surface area, cut through the glove, on dorsal surface of the hand. Marked skin surface area was treated with the test compound in 50 μl of total volume. Because of constrain of man power, only one volunteer who was provided with a written informed consent participated in this study. A protocol approved by the University of Mississippi Human Use Institutional Review Board (IRB protocol #15-070) was followed.\nThe test started when the hand treated (3×4 cm area cut through the glove on the dorsal surface) with a test compound was inserted into the mosquito cage. […] Any treatment with […] females biting during 1 min test period was considered as “passed” whereas a treatment with ≥5 bites out of 500 mosquitoes was considered as “failed”. In case of passing the next lower and in case of failure next higher serial dose was tested to reach MED. Additionally, data on the residual repellent activity was recorded by exposing the treatments to the females after every 30 minutes until the treatment failed. Carrot essential oil, carotol and DEET and the mixtures were tested.\nDirect skin application bioassays were conducted by using a powder-free latex glove (Diamond Grip™, Microflex Corporation, Reno, Nev.). An opening of 3×4 cm was cut through the glove to fit on the dorsal surface of the hand. After donning the glove, a wristband was used to avoid biting on the hand near the border of the glove. Approximately 500 (±5%) mosquitoes, consisting primarily of females, were transferred to a test cage (45×45×45 cm) using an aspirator. A series of dosages were tested to determine MED for repellency as well as residual activity against mosquitoes.\nA single test consisted of covering the hand of a volunteer with a powder-free latex glove and treating a 12 cm^2 surface area, cut through the glove, on the dorsal surface of the hand. Marked skin surface area was treated with the test compound in 50 μl of total volume. Because of constraints of man power, only one volunteer who was provided with a written informed consent participated in this study. A protocol approved by the University of Mississippi Human Use Institutional Review Board (IRB Protocol #15-070) was followed.\nThe test started when the hand treated (3×4 cm area cut through the glove on the dorsal surface) with a test compound was inserted into the mosquito cage. […] Any treatment with ≤5 females biting during the 1 min test period was considered as “passed”, whereas a treatment with ≥5 bites out of 500 mosquitoes was considered as “failed”. In case of passing, the next lower, and in case of failure, the next higher, serial dose was tested to reach MED. Additionally, data on the residual repellent activity were recorded by exposing the treatments to the females after every 30 minutes until the treatment failed. Carrot seed essential oil, carotol, geranium and lemon Eucalyptus essential oils, DEET, picaridin and the mixtures were tested."}, "[2]": {"tested_on": "Aedes albopictus females", "test": "in vivo cloth patch repellent bioassay", "description": "(§1) Cloth patch bioassays were conducted by using in vivo bioassay system described by Katritzky et al. (2008, 2010), with minor modifications. Approximately 500 (±5%) mosquitoes, consisting primarily of females, were transferred into a test cage (45×45×45 cm) using an aspirator. A series of dosages of test compounds were tested to determine MED for repellency of the mosquitoes. MED refers to a concentration of the compound at which biting is less than or equal to 1% (i.e. less than or equal to 5 out of 500 females in the cage) during a 1 minute exposure time. A series of concentrations ranging between 6.25 to 100 μg/cm^2 were tested in the A&K bioassay.\n(§2) A single test consisted of covering the hand of a volunteer with a soft-embossed long cuff poly glove (Atlantis Products, Mankato, Minn.), then by a powder-free latex glove (Diamond Grip, Microflex Corporation, Reno, Nev.). The arm was then covered with a knee high stocking (Leggs® Everyday Knee Highs, Winston-Salem N.C. 27102) to avoid the contact of treated muslin cloth with the skin. A plastic sleeve constructed of polyvinyl was then placed around the arm. Velcro strips were used to fix the plastic sleeve around the arm. About half-way between the wrist and elbow, a 4×7.5 cm slit in the plastic sleeve was used to assess mosquito landing and biting behavior. This opening permitted the attractive odors from the skin surface to emanate out and attract mosquitoes through this opening. During testing, this 30 cm^2 open area was covered with a piece of treated muslin cloth. Because of constraint of man power, only one volunteer who was provided written informed consent participated in this study. A protocol approved by the University of Mississippi Human Use Institutional Review Board (IRB protocol #15-070) was followed.\n(§3) Stock solutions with concentration of 80 μg/ul were prepared in ethanol. Concentrations ranging between 6.25 to 100 μg/cm^2 were selected for testing based on previous experience of the inventors with the A&K bioassay. A piece of muslin cloth measuring 8×13 cm in size was used. An area of 4×7.5 cm was marked in the center of muslin cloth. Approximately 2.5×7 cm pieces of cardboard were attached by staples on the sides of the muslin cloth. Treatments were applied to the marked area of the cloth in 215 μL volume using a pipetter. After drying, the treated muslin cloth was secured on the opening of the plastic sleeve by using an adhesive tape.\n(§4) The test started when the arm with sleeve and treated muslin cloth was inserted into the mosquito cage. […] Residual activity was determined by exposing the females to the treated muslin cloth at an interval of 30 minutes. The treated muslin patch was kept on the arm after the initial treatment and tested every half an hour thereafter.\n(§5) Testing started at the highest dose (100 μg/cm^2) and the dose was lowered to reach the MED. Because the mosquitoes show reduced behavioral activity upon repeated exposure to repellent odors from the arm, after 5 successive exposures of the treatments, the caged mosquitoes were allowed a 15 min recovery period."}, "[3]": {"tested_on": "Aedes aegypti females", "test": "in vivo cloth patch repellent bioassay", "conditions": "for residual repellent activity: time post treatment at which activity lost: 12.5 μg/cm^2; for minimum effective dose (MED): cloth patch, 1 minute exposure", "description": "as §1, §2, §3, §4, §5"}, "[4]": {"tested_on": "Anopheles quadrimaculatus females", "test": "in vivo cloth patch repellent bioassay", "description": "as §1, §2, §3, §4, §5"}}, "data": [{"smiles": "CC1=CC[C@]2(C)CC[C@@H](C(C)C)[C@]2(O)CC1", "note": "[carotol]", "values": [{"measurement": "residual activity: time post application at which MED reached", "setting": "[1]; 8% application rate", "value": 1.5, "unit": "h"}, {"measurement": "residual activity: time post application at which MED reached/crossed", "setting": "[1]; 12.5% application rate", "value": 1.5, "unit": "h"}, {"measurement": "residual activity: time post application at which MED reached", "setting": "[1]; 25% application rate", "value": 2, "unit": "h"}, {"measurement": "residual activity: time post application at which MED reached", "setting": "[1]; 50% application rate", "value": 2.5, "unit": "h"}, {"measurement": "minimum effective dose (MED)", "setting": "[2]", "value": 12.5, "unit": "μg/cm^2"}, {"measurement": "residual repellent activity: time post treatment at which activity lost", "setting": "[3]", "value": "failed"}, {"measurement": "residual repellent activity like DEET: time post treatment up to", "setting": "[3]; 25 μg/cm^2", "value": 120, "unit": "min"}, {"measurement": "residual repellent activity like DEET: time post treatment up to", "setting": "[3]; 50 μg/cm^2", "value": 120, "unit": "min"}, {"measurement": "minimum effective dose (MED)", "setting": "[3]", "value": 25, "unit": "μg/cm^2"}, {"measurement": "minimum effective dose (MED)", "setting": "[4]", "value": 6.25, "unit": "μg/cm^2"}]}, {"smiles": "CCN(CC)C(=O)c1cccc(C)c1", "note": "[DEET, N,N-diethyl-meta-toluamide, reference compound]", "values": [{"measurement": "residual activity: time post application at which MED level crossed", "setting": "[1]; 1% rate of application", "value": 1, "unit": "h"}, {"measurement": "residual activity: time post application at which MED level crossed", "setting": "[1]; 2% rate of application", "value": 1, "unit": "h"}, {"measurement": "minimum effective dose (MED)", "setting": "[2]", "value": 12.5, "unit": "μg/cm^2"}, {"measurement": "residual repellent activity: time post treatment at which activity lost", "setting": "[3]", "value": 30, "unit": "min"}, {"measurement": "minimum effective dose (MED)", "setting": "[3]", "value": 12.5, "unit": "μg/cm^2"}, {"measurement": "minimum effective dose (MED)", "setting": "[4]", "value": 6.25, "unit": "μg/cm^2"}]}]}
